Laboratory results from US9937261B2 (LIPOMEDIX PHARMACEUTICALS LTD., priority 2014, dated 2018).

Tested on: human cervical carcinoma (CaSki) tumor
Test: Anti-tumor effect of prodrug and radiation therapy, CaSki tumor-bearing mice (Example 2)
Details: 5 Gy irradiation in three fractions plus i.v. drug (prodrug 30 mg/kg, free mitomycin C 3.3 mg/kg), 21 days, FIG. 1
Description: Tumor volume was measured for 21 days and the change in tumor volume (ratio of tumor volume at day zero to tumor volume at indicated day post injection) as a function of days post injection of the chemotherapeutic agent was measured.
Cells from a human cervical carcinoma cell line, CaSki, were injected subcutaneously (1 million cells in 200 μL 1:1 RPMI and matrigel) into the left flank of 8 week old female Nu mice. Two weeks after inoculation, mice were treated three times with 5 Gy irradiation. […] Tumor volume was measured for 21 days in all test mice.

CO[C@@]12[C@H](COC(N)=O)C3=C(C(=O)C(C)=C(N)C3=O)N1C[C@@H]1N[C@@H]12 [free mitomycin C, mitomycin C]
tumor growth (change in tumor volume): little or no tumor growth
